The values below come from ChEMBL document CHEMBL3132769, “Fragment growing to retain or alter the selectivity of anchored kinase hinge-binding fragments” (Medchemcomm, 2014).

In experiment [1] the target is Protein kinase C delta type (Homo sapiens) (UniProt Q05655). The experiment can be described thus: Inhibition of human truncated PKC delta expressed in baculovirus assessed as substrate phosphorylation using fluorescence-labelled peptides as substrate at 2 uM after 90 mins by microfluidic peptide phosphorylation assay.
Sequence of Protein kinase C delta type (Homo sapiens) (Q05655 whole entry, looked up, the tested form may be a part): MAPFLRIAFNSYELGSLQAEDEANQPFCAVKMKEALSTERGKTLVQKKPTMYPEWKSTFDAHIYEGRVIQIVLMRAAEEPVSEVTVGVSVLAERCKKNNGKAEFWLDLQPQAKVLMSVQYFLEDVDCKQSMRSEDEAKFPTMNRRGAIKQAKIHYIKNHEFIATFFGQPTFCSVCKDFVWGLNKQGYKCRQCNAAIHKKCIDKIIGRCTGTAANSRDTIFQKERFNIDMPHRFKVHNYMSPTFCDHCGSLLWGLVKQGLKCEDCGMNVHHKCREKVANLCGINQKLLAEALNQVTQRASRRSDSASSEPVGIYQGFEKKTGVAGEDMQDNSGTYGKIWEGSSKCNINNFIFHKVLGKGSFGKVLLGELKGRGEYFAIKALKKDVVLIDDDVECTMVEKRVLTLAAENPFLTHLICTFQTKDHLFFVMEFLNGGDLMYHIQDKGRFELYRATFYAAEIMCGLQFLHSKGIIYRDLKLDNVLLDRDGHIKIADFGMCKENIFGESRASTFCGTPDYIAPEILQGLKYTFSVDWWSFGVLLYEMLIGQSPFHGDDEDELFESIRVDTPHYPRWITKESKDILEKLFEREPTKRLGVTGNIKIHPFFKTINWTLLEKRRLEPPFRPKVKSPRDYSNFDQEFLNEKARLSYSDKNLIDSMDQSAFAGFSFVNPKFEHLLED
Experiment [2] deals with Ribosomal protein S6 kinase alpha-5 (Homo sapiens) (UniProt O75582). The experiment can be described thus: Inhibition of human full length MSK1 expressed in baculovirus assessed as substrate phosphorylation using fluorescence-labelled peptides as substrate at 2 uM after 90 mins by microfluidic peptide phosphorylation assay.
Sequence of Ribosomal protein S6 kinase alpha-5 (Homo sapiens) (O75582 whole entry, looked up): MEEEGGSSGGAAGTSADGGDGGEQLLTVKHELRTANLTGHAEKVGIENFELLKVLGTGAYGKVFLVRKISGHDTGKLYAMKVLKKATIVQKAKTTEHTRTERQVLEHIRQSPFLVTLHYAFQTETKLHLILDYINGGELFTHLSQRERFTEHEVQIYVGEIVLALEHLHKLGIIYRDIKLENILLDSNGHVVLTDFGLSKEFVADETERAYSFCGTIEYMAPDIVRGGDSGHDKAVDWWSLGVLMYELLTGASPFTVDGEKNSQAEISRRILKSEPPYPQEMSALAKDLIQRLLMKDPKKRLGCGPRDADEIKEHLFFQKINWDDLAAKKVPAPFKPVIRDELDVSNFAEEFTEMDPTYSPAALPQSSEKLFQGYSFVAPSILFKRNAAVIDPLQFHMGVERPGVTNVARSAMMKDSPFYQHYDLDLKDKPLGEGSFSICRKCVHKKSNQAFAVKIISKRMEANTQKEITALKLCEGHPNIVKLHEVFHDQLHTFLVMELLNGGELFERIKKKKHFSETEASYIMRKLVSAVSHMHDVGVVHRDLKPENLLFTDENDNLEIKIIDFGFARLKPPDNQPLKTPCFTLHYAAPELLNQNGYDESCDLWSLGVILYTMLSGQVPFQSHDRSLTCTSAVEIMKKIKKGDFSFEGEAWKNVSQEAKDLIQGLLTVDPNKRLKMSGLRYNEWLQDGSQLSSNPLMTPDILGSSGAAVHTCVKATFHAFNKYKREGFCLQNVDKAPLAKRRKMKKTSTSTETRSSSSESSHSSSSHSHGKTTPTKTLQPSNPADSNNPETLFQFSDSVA
Experiment [3] addresses Tyrosine-protein kinase Lyn (Homo sapiens) (UniProt P07948). The experiment can be described thus: Inhibition of human full length LYN expressed in baculovirus assessed as substrate phosphorylation using fluorescence-labelled peptides as substrate at 2 uM after 90 mins by microfluidic peptide phosphorylation assay.
Experiment [4] addresses MAP kinase p38 (Homo sapiens) (UniProt O15264+Q15759+Q16539+P53778). Briefly: Inhibition of human full length p38 beta2 expressed in Escherichia coli cell assessed as substrate phosphorylation using fluorescence-labelled peptides as substrate at 0.2 uM after 90 mins by microfluidic peptide phosphorylation assay.
For experiment [5], the target named is T1, Calcium/calmodulin-dependent protein kinase type IV (Homo sapiens) (UniProt Q16566).
T1 sequence (whole entry): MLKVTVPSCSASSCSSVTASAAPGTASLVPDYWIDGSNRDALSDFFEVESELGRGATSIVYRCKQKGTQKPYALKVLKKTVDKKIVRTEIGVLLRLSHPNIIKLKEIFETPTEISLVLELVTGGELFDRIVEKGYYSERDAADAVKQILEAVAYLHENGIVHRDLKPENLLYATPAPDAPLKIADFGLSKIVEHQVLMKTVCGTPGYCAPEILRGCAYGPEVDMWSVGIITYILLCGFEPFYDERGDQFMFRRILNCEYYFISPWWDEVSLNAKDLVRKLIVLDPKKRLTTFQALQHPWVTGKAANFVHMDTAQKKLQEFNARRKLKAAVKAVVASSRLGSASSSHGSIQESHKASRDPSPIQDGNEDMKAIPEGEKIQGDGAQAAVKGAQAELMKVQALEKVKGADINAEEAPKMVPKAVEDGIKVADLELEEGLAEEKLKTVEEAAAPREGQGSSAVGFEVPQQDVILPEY
The experiment can be described thus: Inhibition of human full length CAMK4 expressed in baculovirus assessed as substrate phosphorylation using fluorescence-labelled peptides as substrate at 0.06 uM after 90 mins by microfluidic peptide phosphorylation assay.

For experiment [6], the target named is T2, MAP kinase-activated protein kinase 5 (Homo sapiens) (UniProt Q8IW41).
T2 sequence (whole entry): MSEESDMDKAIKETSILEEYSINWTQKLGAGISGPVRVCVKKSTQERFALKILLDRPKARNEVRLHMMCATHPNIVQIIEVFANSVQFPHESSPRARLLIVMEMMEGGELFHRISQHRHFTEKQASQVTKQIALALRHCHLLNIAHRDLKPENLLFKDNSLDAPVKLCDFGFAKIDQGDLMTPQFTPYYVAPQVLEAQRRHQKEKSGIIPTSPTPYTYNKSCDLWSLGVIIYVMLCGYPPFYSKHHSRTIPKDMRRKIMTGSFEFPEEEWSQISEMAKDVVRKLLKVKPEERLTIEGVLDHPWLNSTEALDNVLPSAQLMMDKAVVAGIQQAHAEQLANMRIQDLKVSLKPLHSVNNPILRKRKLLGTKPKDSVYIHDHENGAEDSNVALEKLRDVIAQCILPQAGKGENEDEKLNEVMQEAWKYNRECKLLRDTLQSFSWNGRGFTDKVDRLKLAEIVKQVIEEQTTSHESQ
Briefly: Inhibition of human full length PRAK expressed in baculovirus assessed as substrate phosphorylation using fluorescence-labelled peptides as substrate at 0.06 uM after 90 mins by microfluidic peptide phosphorylation assay.

The target of experiment [7] is T3, Aurora kinase A (Homo sapiens) (UniProt O14965).
T3 sequence (whole entry): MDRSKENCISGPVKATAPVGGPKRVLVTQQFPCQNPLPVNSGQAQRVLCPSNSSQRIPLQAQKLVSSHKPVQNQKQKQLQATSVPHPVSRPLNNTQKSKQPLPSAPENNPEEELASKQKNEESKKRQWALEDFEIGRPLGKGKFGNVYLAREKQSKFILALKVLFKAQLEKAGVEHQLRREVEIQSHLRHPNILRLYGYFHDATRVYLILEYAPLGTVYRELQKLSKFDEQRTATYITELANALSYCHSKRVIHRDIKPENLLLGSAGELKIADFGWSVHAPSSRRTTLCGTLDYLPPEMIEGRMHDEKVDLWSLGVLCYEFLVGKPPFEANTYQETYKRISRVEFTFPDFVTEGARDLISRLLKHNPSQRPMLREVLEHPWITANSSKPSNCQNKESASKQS
Briefly: Inhibition of human full length AurA expressed in baculovirus assessed as substrate phosphorylation using fluorescence-labelled peptides as substrate at 0.06 uM after 90 mins by microfluidic peptide phosphorylation assay.

The subject of experiment [8] is Tyrosine-protein kinase ABL1 (Homo sapiens), P00519 [Q252H]. The experiment can be described thus: Inhibition of human truncated ABL Q252H mutant expressed in baculovirus assessed as substrate phosphorylation using fluorescence-labelled peptides as substrate at 95 uM after 90 mins by microfluidic peptide phosphorylation assay.
The target of experiment [9] is T4, cGMP-dependent protein kinase 1 (Homo sapiens) (UniProt Q13976).
T4 sequence (whole entry): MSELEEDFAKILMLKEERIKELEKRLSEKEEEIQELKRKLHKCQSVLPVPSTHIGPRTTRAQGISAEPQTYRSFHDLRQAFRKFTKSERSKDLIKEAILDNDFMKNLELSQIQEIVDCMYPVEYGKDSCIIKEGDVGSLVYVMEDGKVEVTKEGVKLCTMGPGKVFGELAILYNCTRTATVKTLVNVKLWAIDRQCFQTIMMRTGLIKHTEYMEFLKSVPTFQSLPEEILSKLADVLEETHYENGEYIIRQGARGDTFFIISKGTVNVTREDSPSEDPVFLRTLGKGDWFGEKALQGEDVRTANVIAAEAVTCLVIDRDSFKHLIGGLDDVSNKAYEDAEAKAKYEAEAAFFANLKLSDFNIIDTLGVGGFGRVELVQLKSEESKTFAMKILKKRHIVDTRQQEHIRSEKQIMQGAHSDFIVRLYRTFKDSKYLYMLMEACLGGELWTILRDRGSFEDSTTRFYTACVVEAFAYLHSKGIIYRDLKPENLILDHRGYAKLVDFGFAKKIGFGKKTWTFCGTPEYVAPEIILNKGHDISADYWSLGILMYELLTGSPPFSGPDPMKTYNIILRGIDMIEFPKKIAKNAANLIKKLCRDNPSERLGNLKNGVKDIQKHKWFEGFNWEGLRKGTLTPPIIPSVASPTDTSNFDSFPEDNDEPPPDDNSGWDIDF
Briefly: Inhibition of human full length PKG-1a expressed in baculovirus assessed as substrate phosphorylation using fluorescence-labelled peptides as substrate at 70 uM after 90 mins by microfluidic peptide phosphorylation assay.

Experiment [10] deals with Proto-oncogene tyrosine-protein kinase Src (Homo sapiens) (UniProt P12931). The experiment can be described thus: Inhibition of human full length SRC expressed in baculovirus assessed as substrate phosphorylation using fluorescence-labelled peptides as substrate at […] after 90 mins by microfluidic peptide phosphorylation assay.
Sequence of Proto-oncogene tyrosine-protein kinase Src (Homo sapiens) (P12931 2-536 limits assumed): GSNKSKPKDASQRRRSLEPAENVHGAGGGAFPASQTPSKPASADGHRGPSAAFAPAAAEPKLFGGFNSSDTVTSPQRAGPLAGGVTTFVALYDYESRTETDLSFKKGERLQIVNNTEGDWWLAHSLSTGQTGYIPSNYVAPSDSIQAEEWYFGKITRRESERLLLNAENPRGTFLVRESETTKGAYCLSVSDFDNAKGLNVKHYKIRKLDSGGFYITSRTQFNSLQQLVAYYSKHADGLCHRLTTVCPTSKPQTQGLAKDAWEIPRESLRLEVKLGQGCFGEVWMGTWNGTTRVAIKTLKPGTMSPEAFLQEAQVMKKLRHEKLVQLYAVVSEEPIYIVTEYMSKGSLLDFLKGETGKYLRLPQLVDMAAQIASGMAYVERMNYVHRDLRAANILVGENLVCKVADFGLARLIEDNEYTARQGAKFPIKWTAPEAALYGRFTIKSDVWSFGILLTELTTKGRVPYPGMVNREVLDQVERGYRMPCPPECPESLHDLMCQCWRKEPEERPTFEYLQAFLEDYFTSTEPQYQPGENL

Sequence of Tyrosine-protein kinase Lyn (Homo sapiens) (P07948 2-512 limits assumed): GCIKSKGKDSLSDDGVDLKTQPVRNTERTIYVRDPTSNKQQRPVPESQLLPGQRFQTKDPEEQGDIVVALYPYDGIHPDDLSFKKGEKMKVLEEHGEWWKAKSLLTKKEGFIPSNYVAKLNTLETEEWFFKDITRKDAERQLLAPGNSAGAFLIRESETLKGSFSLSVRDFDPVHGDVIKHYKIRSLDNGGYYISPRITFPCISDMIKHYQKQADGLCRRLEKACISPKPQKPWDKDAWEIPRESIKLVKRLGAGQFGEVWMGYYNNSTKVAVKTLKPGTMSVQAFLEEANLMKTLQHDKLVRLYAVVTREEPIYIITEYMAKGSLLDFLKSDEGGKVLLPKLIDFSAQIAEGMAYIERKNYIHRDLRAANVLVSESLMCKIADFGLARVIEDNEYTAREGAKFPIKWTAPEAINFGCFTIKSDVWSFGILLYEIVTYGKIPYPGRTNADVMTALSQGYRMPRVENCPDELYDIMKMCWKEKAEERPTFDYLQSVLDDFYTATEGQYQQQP

A word on the inhibition: it is how much of the control response was suppressed. Take `NC1CCN(c2ncnc3[nH]ccc23)CC1`: the results for the inhibition in experiment [1], in experiment [2] and in [3] were 33%, 0.5% and 0.5%, respectively.
In the case of `Clc1ccc(C2(c3ccc(-c4ncnc5[nH]cnc45)cc3)CCNCC2)cc1`, the inhibition in experiment [4] stood at 2.5%.
On to `NC1(Cc2ccc(Cl)cc2)CCN(c2ncnc3[nH]ccc23)CC1`, for which the inhibition was found to be 6% in experiment [5], 0% in [6] and 7.5% in experiment [7].
For the compound `NCCc1ccc(-c2ncnc3[nH]cnc23)cc1`, the inhibition in experiment [8] stood at 67.5%.
On to `CNCc1ccc(-c2ncnc3[nH]cnc23)cc1`, for which the inhibition in experiment [9] was determined as 97.5%.
`COC(=O)c1cnc(Nc2cnc(C#N)cn2)cc1NCC1CCNCC1`: the inhibition in experiment [10] was 7.5%.
